Results taken from PubChem BioAssay (NCI).
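Briefly, cells in 96-well plates were exposed to five compound concentrations for 48 h, and endpoints were estimated by linear interpolation. At the TGI there is no net growth.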

Legend:
Assay in all cases: inhibition of tumour cell growth, NCI panel, 48 h
[1] = tested on: HOP-92 NSCLC
[2] = tested on: COLO 205 colon
[3] = tested on: OVCAR-8 ovarian
[4] = tested on: NCI/ADR-RES ovarian
[5] = tested on: HCT-15 colon
[6] = tested on: U251 CNS
[7] = tested on: HCT-116 colon
[8] = tested on: KM12 colon
[9] = tested on: SR leukemia
[10] = tested on: OVCAR-5 ovarian
[11] = tested on: A549 NSCLC
[12] = tested on: UO-31 renal
[13] = tested on: IGROV1 ovarian
[14] = tested on: MOLT-4 leukemia
[15] = tested on: NCI-H460 lung
[16] = tested on: PC-3 prostate
[17] = tested on: MDA-MB-231 breast
[18] = tested on: RXF 393 renal
[19] = tested on: CCRF-CEM leukemia
[20] = tested on: HOP-62 NSCLC
[21] = tested on: LOX IMVI melanoma
[22] = tested on: SW-620 colon
[23] = tested on: CAKI-1 renal
[24] = tested on: SF-295 CNS
[25] = tested on: SF-539 CNS
[26] = tested on: A498 renal
[27] = tested on: 786-0 renal
[28] = tested on: OVCAR-3 ovarian
[29] = tested on: ACHN renal
[30] = tested on: NCI-H226 lung
[31] = tested on: SK-MEL-28 melanoma
[32] = tested on: DU-145 prostate
[33] = tested on: NCI-H23 lung
[34] = tested on: UACC-62 melanoma
[35] = tested on: MDA-N
[36] = tested on: K-562 leukemia
[37] = tested on: EKVX NSCLC
[38] = tested on: RPMI-8226 leukemia
[39] = tested on: SNB-75 CNS
[40] = tested on: MCF7 breast
[41] = tested on: UACC-257 melanoma
[42] = tested on: HT29 colon
[43] = tested on: SK-MEL-2 melanoma
[44] = tested on: MDA-MB-435
[45] = tested on: SN12C renal
[46] = tested on: OVCAR-4 ovarian
[47] = tested on: HCC-2998 colon
[48] = tested on: SNB-19 CNS
[49] = tested on: SK-MEL-5 melanoma
[50] = tested on: BT-549 breast
[51] = tested on: T-47D breast
[52] = tested on: M14 melanoma
[53] = tested on: SF-268 CNS
[54] = tested on: HL-60(TB) leukemia
[55] = tested on: MALME-3M melanoma
[56] = tested on: SK-OV-3 ovarian
[57] = tested on: TK-10 renal

O=S(=O)(O)c1ccc(O)c2ncc(Cl)cc12
TGI [1]: > 100 µM | TGI [2]: > 100 µM | TGI [3]: > 100 µM | TGI [4]: > 100 µM | TGI [5]: > 100 µM | TGI [6]: > 100 µM | TGI [7]: > 100 µM | TGI [8]: > 100 µM | TGI [9]: > 100 µM | TGI [10]: > 100 µM | TGI [11]: > 100 µM | TGI [12]: > 100 µM | TGI [13]: > 100 µM | TGI [14]: > 100 µM | TGI [15]: > 100 µM | TGI [16]: > 100 µM | TGI [17]: > 100 µM | TGI [18]: > 100 µM | TGI [19]: > 100 µM | TGI [20]: > 100 µM | TGI [21]: > 100 µM | TGI [22]: > 100 µM | TGI [23]: > 100 µM | TGI [24]: > 100 µM | TGI [25]: > 100 µM | TGI [26]: > 100 µM | TGI [27]: > 100 µM | TGI [28]: > 100 µM | TGI [29]: > 100 µM | TGI [30]: > 100 µM | TGI [31]: > 100 µM | TGI [32]: > 100 µM | TGI [33]: > 100 µM | TGI [34]: > 100 µM | TGI [35]: > 100 µM | TGI [36]: > 100 µM | TGI [37]: > 100 µM | TGI [38]: > 100 µM | TGI [39]: > 100 µM | TGI [40]: > 100 µM | TGI [41]: > 100 µM | TGI [42]: > 100 µM | TGI [43]: > 100 µM | TGI [44]: > 100 µM | TGI [45]: > 100 µM | TGI [46]: > 100 µM | TGI [47]: > 100 µM | TGI [48]: > 100 µM | TGI [49]: > 100 µM | TGI [50]: > 100 µM | TGI [51]: > 100 µM | TGI [52]: > 100 µM

NC1CC(=O)c2sc(I)cc21 (stereo not drawn)
TGI [2]: > 100 µM | TGI [3]: > 100 µM | TGI [4]: > 100 µM | TGI [5]: > 100 µM | TGI [6]: > 100 µM | TGI [7]: > 100 µM | TGI [8]: > 100 µM | TGI [9]: > 100 µM | TGI [10]: > 100 µM | TGI [11]: > 100 µM | TGI [12]: > 100 µM | TGI [13]: > 100 µM | TGI [14]: > 100 µM | TGI [15]: > 100 µM | TGI [16]: > 100 µM | TGI [17]: > 100 µM | TGI [18]: > 100 µM | TGI [19]: > 100 µM | TGI [20]: > 100 µM | TGI [22]: > 100 µM | TGI [23]: > 100 µM | TGI [25]: > 100 µM | TGI [26]: > 100 µM | TGI [27]: > 100 µM | TGI [53]: > 100 µM | TGI [54]: 78.7 µM | TGI [28]: > 100 µM | TGI [29]: > 100 µM | TGI [31]: > 100 µM | TGI [32]: > 100 µM | TGI [34]: > 100 µM | TGI [55]: > 100 µM | TGI [56]: > 100 µM | TGI [35]: > 100 µM | TGI [36]: > 100 µM | TGI [37]: > 100 µM | TGI [38]: > 100 µM | TGI [39]: > 100 µM | TGI [40]: > 100 µM | TGI [41]: > 100 µM | TGI [42]: > 100 µM | TGI [43]: > 100 µM | TGI [44]: > 100 µM | TGI [45]: > 100 µM | TGI [57]: > 100 µM | TGI [47]: > 100 µM | TGI [48]: > 100 µM | TGI [49]: > 100 µM | TGI [50]: > 100 µM | TGI [51]: > 100 µM | TGI [52]: > 100 µM
